Assay results published in PubChem BioAssay AID1963864 (Molecular Pharmacology Branch, DTP, NCI, 2024).

System: KRAS PDC multicell spheroid viability
Test: Anticancer human tumor 521955-158-R6-J3-PDC patient-derived pancreatic carcinoma cell line growth inhibition [KRAS2]
Details: for IC50: curve of first compound; for viability, T/C: stronger effect = lower value
Summary of the method: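 KRAS-mutant tumor cells were grown as spheroids with HUVEC endothelial cells and human MSCs as stroma. Targeted agents were tested alone and with KRAS pathway inhibitors. Doses started at or near clinical Cmax, or 10 microM, descending half-log.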

[1] = second compound 0.1 µM, first compound 0.0316 µM
[2] = second compound 0.1 µM, first compound 0.1 µM
[3] = second compound 0.316 µM, first compound 0.0316 µM
[4] = second compound 0.316 µM, first compound 0.1 µM
[5] = second compound 1 µM, first compound 0.0316 µM
[6] = second compound 1 µM, first compound 0.1 µM
[7] = second compound 3.16 µM, first compound 0.0316 µM
[8] = second compound 3.16 µM, first compound 0.1 µM
[9] = second compound 10 µM, first compound 0.0316 µM
[10] = second compound 10 µM, first compound 0.1 µM
[11] = second compound 0.1 µM, first compound 0.316 µM
[12] = second compound 0.1 µM, first compound 1 µM
[13] = second compound 0.1 µM, first compound 3.16 µM
[14] = second compound 0.1 µM, first compound 10 µM
[15] = second compound 0.316 µM, first compound 0.316 µM
[16] = second compound 0.316 µM, first compound 1 µM
[17] = second compound 0.316 µM, first compound 3.16 µM
[18] = second compound 0.316 µM, first compound 10 µM
[19] = second compound 1 µM, first compound 0.316 µM
[20] = second compound 1 µM, first compound 1 µM
[21] = second compound 1 µM, first compound 3.16 µM
[22] = second compound 1 µM, first compound 10 µM
[23] = second compound 3.16 µM, first compound 0.316 µM
[24] = second compound 3.16 µM, first compound 1 µM
[25] = second compound 3.16 µM, first compound 3.16 µM
[26] = second compound 3.16 µM, first compound 10 µM
[27] = second compound 10 µM, first compound 0.316 µM
[28] = second compound 10 µM, first compound 1 µM
[29] = second compound 10 µM, first compound 3.16 µM
[30] = second compound 10 µM, first compound 10 µM
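Note: drug exposure lasted seven days.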
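Throughout, for viability, T/C: 100% = DMSO vehicle wells and lower means fewer viable cells.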

| SMILES | IC50 (second compound 0.1 µM) | IC50 (second compound 0.316 µM) | IC50 (second compound 1 µM) | IC50 (second compound 3.16 µM) | IC50 (second compound 10 µM) | viability, T/C [1] | viability, T/C [2] | viability, T/C [3] | viability, T/C [4] | viability, T/C [5] | viability, T/C [6] | viability, T/C [7] | viability, T/C [8] | viability, T/C [9] | viability, T/C [10] | viability, T/C [11] | viability, T/C [12] | viability, T/C [13] | viability, T/C [14] | viability, T/C [15] | further results |
| --- | --- | --- | --- | --- | --- | --- | --- | --- | --- | --- | --- | --- | --- | --- | --- | --- | --- | --- | --- | --- | --- |
| CC(C)n1nc(-c2ccc3oc(N)nc3c2)c2c(N)ncnc21 + COc1cc2nc(C)nc(NC(C)c3cc(N)cc(C(F)(F)F)c3)c2cc1OC1CCOC1 | 0.0975 µM | 0.0947 µM | 0.092 µM | 0.0566 µM | < 0.000316 µM | 63.9% | 49.1% | 64.6% | 47.3% | 63% | 46.8% | 61.6% | 39.5% | 45.5% | 39.6% | – | – | – | – | – | viability, T/C (second compound 0.1 µM, first compound 0.000316 µM): 96.3%; viability, T/C (second compound 0.1 µM, first compound 0.001 µM): 96%; viability, T/C (second compound 0.1 µM, first compound 0.00316 µM): 79.9%; viability, T/C (second compound 0.1 µM, first compound 0.01 µM): 73.8%; viability, T/C (second compound 0.316 µM, first compound 0.000316 µM): 101%; viability, T/C (second compound 0.316 µM, first compound 0.001 µM): 85.9%; viability, T/C (second compound 0.316 µM, first compound 0.00316 µM): 80%; viability, T/C (second compound 0.316 µM, first compound 0.01 µM): 69.6%; viability, T/C (second compound 1 µM, first compound 0.000316 µM): 94.8%; viability, T/C (second compound 1 µM, first compound 0.001 µM): 87.1%; viability, T/C (second compound 1 µM, first compound 0.00316 µM): 74.8%; viability, T/C (second compound 1 µM, first compound 0.01 µM): 75.1%; viability, T/C (second compound 3.16 µM, first compound 0.000316 µM): 64.9%; viability, T/C (second compound 3.16 µM, first compound 0.001 µM): 66.8%; viability, T/C (second compound 3.16 µM, first compound 0.00316 µM): 63.5%; viability, T/C (second compound 3.16 µM, first compound 0.01 µM): 60.1%; viability, T/C (second compound 10 µM, first compound 0.000316 µM): 32%; viability, T/C (second compound 10 µM, first compound 0.001 µM): 24.6%; viability, T/C (second compound 10 µM, first compound 0.00316 µM): 68.8%; viability, T/C (second compound 10 µM, first compound 0.01 µM): 60.7% |
| CC1(C)CCC(CN2CCN(c3ccc(C(=O)NS(=O)(=O)c4ccc(NCC5CCOCC5)c([N+](=O)[O-])c4)c(Oc4cnc5[nH]ccc5c4)c3)CC2)=C(c2ccc(Cl)cc2)C1 + COc1cc2nc(C)nc(NC(C)c3cc(N)cc(C(F)(F)F)c3)c2cc1OC1CCOC1 | 8.21 µM | 8.72 µM | 6.08 µM | 2.81 µM | < 0.0316 µM | 103% | 100% | 90.8% | 102% | 90.1% | 99.3% | 68.9% | 67.5% | 19.5% | 23.6% | 91.6% | 107% | 77.8% | 44.3% | 95.7% | viability, T/C [16]: 81.7%; viability, T/C [17]: 70.5%; viability, T/C [18]: 47.1%; viability, T/C [19]: 88.1%; viability, T/C [20]: 89.5%; viability, T/C [21]: 63.1%; viability, T/C [22]: 40%; viability, T/C [23]: 69.3%; viability, T/C [24]: 74%; viability, T/C [25]: 47.7%; viability, T/C [26]: 30.3%; viability, T/C [27]: 17.3%; viability, T/C [28]: 31.4%; viability, T/C [29]: 18.6%; viability, T/C [30]: 4.55% |
| COc1cc(Nc2ncc3c(n2)-c2ccc(Cl)cc2C(c2c(F)cccc2OC)=NC3)ccc1C(=O)O + COc1cc2nc(C)nc(NC(C)c3cc(N)cc(C(F)(F)F)c3)c2cc1OC1CCOC1 | > 10 µM | > 10 µM | > 10 µM | > 10 µM | < 0.0316 µM | 102% | 88.3% | 93.4% | 86.3% | 80.7% | 84.4% | 76% | 72.5% | 68.9% | 23.1% | 89% | 88.9% | 97.1% | 90.4% | 87.4% | viability, T/C [16]: 99.2%; viability, T/C [17]: 96.8%; viability, T/C [18]: 88.6%; viability, T/C [19]: 87.7%; viability, T/C [20]: 89.3%; viability, T/C [21]: 95.3%; viability, T/C [22]: 83.4%; viability, T/C [23]: 82.1%; viability, T/C [24]: 78.5%; viability, T/C [25]: 80.6%; viability, T/C [26]: 71.2%; viability, T/C [27]: 30%; viability, T/C [28]: 31.2%; viability, T/C [29]: 56.8%; viability, T/C [30]: 23% |
| COc1cc2nccc(Oc3ccc(NC(=O)C4(C(=O)Nc5ccc(F)cc5)CC4)cc3)c2cc1OC + COc1cc2nc(C)nc(NC(C)c3cc(N)cc(C(F)(F)F)c3)c2cc1OC1CCOC1 | > 10 µM | > 10 µM | > 10 µM | > 10 µM | < 0.0316 µM | 89.3% | 91.9% | 93.3% | 97.2% | 79.8% | 84.4% | 70.5% | 73.9% | 49.1% | 11.8% | 78.7% | 91.3% | 101% | 90.2% | 90.1% | viability, T/C [16]: 90.9%; viability, T/C [17]: 97.5%; viability, T/C [18]: 95.2%; viability, T/C [19]: 83.5%; viability, T/C [20]: 88.1%; viability, T/C [21]: 103%; viability, T/C [22]: 78.7%; viability, T/C [23]: 70.8%; viability, T/C [24]: 72.8%; viability, T/C [25]: 89.5%; viability, T/C [26]: 53.6%; viability, T/C [27]: 18.1%; viability, T/C [28]: 27.6%; viability, T/C [29]: 2.28%; viability, T/C [30]: 1.88% |
